Experimental data reported in the pKa sets of Baltruschat and Czodrowski (2020).

| SMILES | pKa (basic group) | pKa (acidic group) |
| --- | --- | --- |
| CC(C)CSC(=N)c1ccccc1 | 8.22 | – |
| CCCn1nnnc1N | 1.8 | – |
| Nc1ccc(Cl)cc1N | 4.3 | – |
| CC1=C(CC(C)NCC(O)c2ccc(N)cc2)CCC1(C)C (configuration not stated) | 9.01 | – |
| Cc1cc(C)cc(O)c1 | – | 10.1 |
| O=Cc1cc(Br)ccc1O | – | 7.4 |
| Cc1cncc(C)c1 | 6.15 | – |
| Nc1ccc2c(c1)-c1c(ccc3ccccc13)C2 | 4.67 | – |
| CC(=O)[C@H]1CC=CC[C@@H]1C(=O)O | – | 4.4 |
| Cc1ncc[nH+]c1C | -4.17 | – |
| Oc1cncc2ccccc12 | 4.8 | 8.68 |
| COc1ccc(S(=O)(=O)NCc2ccccc2)cc1 | – | 11.5 |
| Cc1cccc2oc(=O)cc(O)c12 | – | 4.2 |
| Cn1ncc2c(NCCO)ncnc21 | 3.86 | – |
| O=C(O)Cc1ccsc1 | – | 4.07 |
| C#CCN1CCOCC1 | 5.54 | – |
| OC(c1ccncc1)n1cc[nH+]c1 (configuration not stated) | – | 7.24 |
| CC(C)(S)CN | 8.48 | 11 |
| Cc1cnc([O-])nc1N | 12.4 | – |
| Nc1ncc(Cl)s1 | 3.66 | – |
| Cn1ccc(=O)cc1 | 3.33 | – |
| Clc1cccc(-c2nnn[nH]2)c1 | – | 3.61 |
| [O-]/N=C1\CCCC\C1=N/O | – | 12.6 |
| CSc1cccc(N)c1 | 4.05 | – |
| CCN(CC)CCCCC#N | 10.1 | – |

| SMILES | pKa (basic group) | pKa (acidic group) |
| --- | --- | --- |
| Cc1cc(C(=O)O)ccc1[N+](=O)[O-] | – | 3.65 |
| Oc1ccccc1CN1CCCNCCCNCCC1 | 9.87 | – |
| [O-]c1cc2ccccc2nn1 | 8.61 | – |
| CCOCCn1c(CN2CCC[NH+](CCCCn3cccn3)CC2)nc2ccccc21 | 4.9 | – |
| Brc1ccc([P+](c2ccccc2)(c2ccccc2)C2c3ccccc3-c3ccccc32)cc1 | – | 8.67 |
| Clc1ccc(C2NCCS2)cc1 (configuration not stated) | 5.01 | – |
| COC(=O)[C@@H]1CSCN1 | 3.92 | – |
| CC1=Nc2ccc(C)cc2N=C(C)C1 | 4 | – |
| COc1cc(S(C)=O)ccc1-c1nc2nccnc2[nH]1 (configuration not stated) | – | 8.94 |
| Nc1ncccc1C(=O)[O-] | 6.59 | – |
| c1cc(-c2ccoc2)ccn1 | 5.72 | – |
| Cc1cc(C)c(/N=N/c2c(C)cc(O)cc2C)c(C)c1 | – | 9.1 |
| OCC(S)CS (configuration not stated) | – | 8.62 |
| CN(C)CCCCCCCCNC(=O)/C=N/[O-] | 10.5 | – |
| Cc1ccncc1C | 6.53 | – |
| CC(C)(C)CC(C)(C)N | 10.8 | – |
| CN1C[C@@H](CO)C[C@H]2c3cccc4[nH]cc(c34)C[C@@H]21 | 8.3 | – |
| CC(C)CN(C)C | 9.91 | – |
| CO[n+]1ccccc1N | – | 12.4 |
| CNCCCc1ccccc1 | 10.6 | – |
| C[N+](C)(C)O | – | 4.65 |
| Nc1ccncc1 | 9.16 | – |
| NNC(=O)CF | – | 11.3 |
| COc1ccc(C(=O)O)c(C)c1 | – | 4.54 |
| O=C([O-])CN=C1CCCC1 | 8.72 | – |

| SMILES | pKa (basic group) | pKa (acidic group) |
| --- | --- | --- |
| COc1cnc[nH+]c1O | – | 1.75 |
| O=C(CCN1CCOCC1)C(c1ccccc1)c1ccccc1 | 6.39 | – |
| c1cncc(-c2ccoc2)c1 | 4.93 | – |
| c1ccc(NC2CCCC2)cc1 | 5.3 | – |
| [O-]c1ncnc2cccnc12 | 8.95 | – |
| O/N=C/c1cccnc1 | 3.94 | 10.3 |
| c1c[nH+]ccn1 | -5.55 | – |
| CO/N=C(\C)CC(C)(C)NCC[NH2+]C(C)(C)C/C(C)=N/O | 6.28 | – |
| O=C(O)c1ccccc1Br | – | 2.93 |
| NCCC(=O)Oc1ccc([N+](=O)[O-])cc1 | 9.17 | – |
| O=C(O)c1cccc(S)c1 | – | 3.96 |
| O=c1ccc(O)c(Br)cc1 | – | 4.9 |
| Nc1c2ccccc2nc2c(N)cccc12 | 9.3 | – |
| C[NH+](C)CCc1c[nH]c2ccc(O)cc12 | – | 9.73 |
| OC(c1ccccc1)c1ccccn1 (configuration not stated) | 4.44 | 12.8 |
| Nc1ccc(N)c(N)c1 | 6.1 | – |
| Cc1c([N+](=O)[O-])cc(Cl)c2nnn(O)c12 | – | 3.17 |
| CC1(C)S[C@H]2C(C(=O)[O-])N=C(CCCC(N)C(=O)[O-])N2C1C(=O)[O-] (some centres not stated) | 10.3 | – |
| CCCCCCCCCCCCCCCCCN | 10.6 | – |
| CC[N+](O)(CC)c1ccccc1 | – | 4.53 |
| Oc1cc[nH+]cc1 | – | 4.04 |
| NC(=O)CN(CCN(CC(N)=O)Cc1ccccc1O)Cc1ccccc1[O-] | – | 11 |
| C1CN2CC[C@@H]3OC[C@H]1[C@@H]32 | 9.44 | – |
| CC(=O)c1cc[nH]n1 | – | 11.8 |
| Cc1cc([O-])nc2c1CCO2 | 8.44 | – |

| SMILES | pKa (basic group) | pKa (acidic group) |
| --- | --- | --- |
| [NH3+]CCCNCCC[NH3+] | 8.08 | – |
| C[C@@H]1C[C@@H]([C@H](O)CC2CC(=O)NC(=O)C2)C(=O)[C@@H](C)C1 | – | 11.2 |
| Cc1cccc(O)c1C | – | 10.5 |
| COc1ccc(B(O)O)cc1 | – | 9.32 |
| O=C([O-])[C@H](NCCN[C@@H](C(=O)[O-])c1ccccc1[O-])c1ccccc1[O-] | 12.1 | – |
| CCN(CC)CCCNc1c2ccccc2[nH+]c2ccccc12 | 8.53 | – |
| O=C(O)C1(O)CCC1 | – | 3.88 |
| C#C[C@]1(O)C[C@@H](C)N(C)[C@H]2CCCC[C@@H]21 | 8.99 | – |
| CC(=O)Oc1cccc2cccnc12 | 3.3 | – |
| O=[N+]([O-])c1ccc2c(O)cccc2c1 | – | 8.49 |
| Oc1cc(Cl)c(Cl)c(Cl)c1 | – | 7.7 |
| Nc1c2ccccc2nc2c1ccc1c([N+](=O)[O-])cccc12 | 7.1 | – |
| CCCN(CCC)CCc1c[nH]c2ccccc12 | 8.6 | – |
| CCCN(CC(O)CC)CC(O)CC (configuration not stated) | 9 | – |
| [NH3+]c1cccc(O[C@H]2O[C@@H](C(=O)O)[C@H](O)[C@@H](O)[C@@H]2O)c1 | – | 2.97 |
| C[C@H](CCCN)[C@H]1CC[C@H]2[C@@H]3CC[C@@H]4C[C@H](O)CC[C@]4(C)[C@H]3CC[C@]12C | 9.7 | – |
| NC1=[NH+][C@@H](CC(=O)O)C(=O)N1CCCC([NH3+])C(=O)[O-] (some centres not stated) | – | 3.26 |
| c1ccc(C2CCCN2)cc1 (configuration not stated) | 9.6 | – |
| [O-]c1nc(S)c2[nH]cnc2n1 | – | 11.4 |
| Cc1ccc([N+](C)(C)C)cc1O | – | 8.2 |
| COc1ccc(NS(=O)(=O)c2ccccc2)cc1 | – | 8.88 |
| C[n+]1ccc(O)nc1 | – | 1.91 |
| CN(C)/C=N/c1ccccc1Br | 6.71 | – |
| NS(=O)(=O)c1cc2c(cc1Cl)N=CNS2(=O)=O | – | 6.7 |
| CCOC(=O)C1CCCCC1=O (configuration not stated) | – | 11.9 |

| SMILES | pKa (basic group) | pKa (acidic group) |
| --- | --- | --- |
| O=C(O)C1=C(CO)CC1 | – | 4.16 |
| CCC1C(=O)C(CC)C1=O (configuration not stated) | – | 3.5 |
| COc1ccc(-c2ncc(-c3ccc(N)cc3)o2)cc1 | 3.71 | – |
| c1ccc2cc3[nH]cnc3cc2c1 | 5.24 | 12.5 |
| Oc1onc2c1CC[NH+](Cc1ccccc1)CC2 | – | 3.3 |
| Nc1nc2nc[n-]c2c(N)[n+]1[O-] | – | 12 |
| Cc1cccc2cccnc12 | 4.87 | – |
| CCCCCCCCCCCCCC(=O)N(O)c1ccccc1 | – | 9.05 |
| CCc1cc([N+](=O)[O-])cc(CC)c1O | – | 7.73 |
| S=C(Nc1ccccc1)c1ccccc1 | – | 10.9 |
| COc1cc(NS(C)(=O)=O)ccc1-c1cn2cccnc2n1 | 4.17 | – |
| Cn1cncc1C[C@H](NC(=O)CC[NH3+])C(=O)[O-] | 7.08 | – |
| Brc1ccc2nc3c(c(N4CCOCC4)c2c1)CCC3 | 6.38 | – |
| O=c1[nH]c2ccccc2nc1[O-] | – | 12.3 |
| O=CCC=O | – | 4.57 |
| Cn1c2ccccc2c(=N)c2ccccc21 | 11 | – |
| Cc1ccnnc1 | 3.22 | – |
| Cc1ccc(C(=O)N(C)O)cc1 | – | 8.5 |
| CCC(=O)OO | – | 8.1 |
| OB1OCc2ccccc21 | – | 7.38 |
| Oc1ccc2ccc(Cl)cc2c1 | – | 9.09 |
| OCc1ccc(-c2nccc3c2[nH]c2ccccc23)o1 | 5.7 | – |
| O=C(O)c1ccc[nH+]c1 | -2.4 | 2.03 |
| CC(C)CP(=O)(O)CC(C)C | – | 3.25 |
| C[n+]1ccccc1/C=C/c1ccc(O)cc1 | – | 8.4 |

| SMILES | pKa (basic group) | pKa (acidic group) |
| --- | --- | --- |
| Nc1cnc([S-])nc1N | 10.4 | – |
| CCNN(C)CC | 6.81 | – |
| Cc1c(C)c(O)c(C)c(C)c1O | – | 11.3 |
| c1ncc(Cc2cnc[nH]2)[nH]1 | 7.63 | – |
| c1ccc(-c2ccc(NCCN3CCOCC3)nn2)cc1 | 6.74 | – |
| O=C(O)/C=C\c1c[nH]c[nH+]1 | – | 3 |
| Oc1cncnc1 | 1.87 | 6.78 |
| O=C(O)c1c2ccccc2[nH+]c2ccccc12 | – | 3 |
| O=C1Nc2ccccc2C1=O | – | 11.9 |
| Oc1cccc(O)c1O | – | 8.97 |
| [NH3+]CC(=O)N[C@@H](Cc1c[nH]cn1)C(=O)[O-] | 6.77 | – |
| CN(O)C(=O)c1ccccc1 | – | 8.07 |
| COc1cc(S(C)=O)ccc1-c1nc2ncc(N)cc2[nH]1 (configuration not stated) | 3.9 | – |
| [NH3+][C@@H](Cc1c[nH]cn1)C(=O)N[C@@H](Cc1c[nH]cn1)C(=O)[O-] | 6.8 | – |
| CC1CCn2nnnc2C(C(=O)O)C1 (configuration not stated) | – | 3.2 |
| Nc1n[nH]cc1[N+](=O)[O-] | – | 9.73 |
| Cc1cccc(N(C)C)c1 | 5.32 | – |
| Cc1ccc(S(=O)(=O)NC(=O)OCc2ccc([N+](=O)[O-])cc2)cc1 | – | 3.8 |
| CC(=O)CCCC(=O)O | – | 4.66 |
| O=C([O-])[C@@H](O)Cc1c[nH]cn1 | 7.32 | – |
| c1coc(CSc2ncnc3nc[nH]c23)c1 | – | 8.42 |
| O=Cc1ccccc1C(=O)O | – | 4.56 |
| Nc1cncc2ccccc12 | 6.28 | – |
| CC(=O)OC1CN2CCC1CC2 (configuration not stated) | 9.27 | – |
| O=C(c1ccccc1)N1CCNCC1 | 7.79 | – |

| SMILES | pKa (basic group) | pKa (acidic group) |
| --- | --- | --- |
| COc1cccc2cccnc12 | 4.88 | – |
| CCCN(N)CCC | 7 | – |
| O=C1NC(=O)[C@@H]2CCCC[C@H]12 | – | 9.72 |
| Nc1cc(N2CCOCC2)nc(N)n1 | 6.73 | -0.35 |
| O=C(O)C1CC1(Br)Br (configuration not stated) | – | 3.57 |
| NCCCN | 10.6 | – |
| CCCNc1ccccc1 | 5.12 | – |
| CP(C)(=O)O | – | 3.08 |
| CC(O)CC(=O)O (configuration not stated) | – | 4.5 |
| COc1cc(OC)nc(NS(=O)(=O)c2ccc(N)cc2)n1 | – | 7.12 |
| Oc1ccccc1-c1nnn[nH]1 | – | 4.36 |
| C1CNCC[NH2+]CCN1 | 6.97 | – |
| CN(C)c1ccc[nH+]c1 | -1.91 | – |
| c1cc2c(cn1)CCCC2 | 6.65 | – |
| COC(=O)c1ccc2ncccc2c1 | 3.8 | – |
| O=C(O)c1ccc[se]1 | – | 3.43 |
| CC(C)CCC1C(=O)C(O)C(CCC(C)C)(CCC(C)C)C1=O (configuration not stated) | – | 6.3 |
| COc1cccc(C)c1C(=O)O | – | 3.46 |
| CCOC(=O)c1c(C)nc(C)c(C(=O)OCC)c1-c1ccc(NS(=O)(=O)c2ccc(N)cc2)cc1 | – | 9.15 |
